Laboratory results: patent US9932637B2, “Genetic polymorphisms associated with cardiovascular disorders and drug response, methods of detection and uses thereof” (CELERA CORPORATION, priority 2003, dated 2018)

System: patients with prior myocardial infarction (CARE study)
Experiment: CARE: association of SNPs with pravastatin treatment in RMI prevention (genotypic RR in placebo and statin strata; Table 10)
Format: in vivo, human
Description: In order to identify genetic markers associated with acute coronary events (e.g. MI, stroke, unstable angina, congestive heart failure, etc.) or response to statin treatment for the prevention of coronary events, samples from the Cholesterol and Recurrent Events (CARE) study (a randomized multicentral double-blinded trial on secondary prevention of acute coronary events with pravastatin) (Sacks et al., 1991, Am. J. Cardiol. 68: 1436-1446) were genotyped. A well-documented myocardial infarction (MI) was one of the enrollment criteria for entry into the CARE study. Patients were enrolled in the CARE trial from 80 participating study centers. […] Patients were randomized to receive either 40 mg of pravastatin once daily or a matching placebo. The primary endpoint of the trial was death from coronary heart disease and the median duration of follow-up was 5.0 years (range, 4.0 to 6.2 years). […] Secondary endpoints of other related cardiovascular or metabolic disease events, and changes in clinical variables were also recorded in pravastatin-treated and placebo groups. All individuals included in the study had signed a written informed consent form and the study protocol was approved by the respective Institutional Review Boards (IRBs).
For genotyping SNPs in CARE patient samples, DNA was extracted from blood samples using conventional DNA extraction methods such as the QIA-amp kit from Qiagen. Genotypes were obtained on an ABI PRISM® 7900HT Sequence Detection PCR system (Applied Biosystems, Foster City, Calif.) by kinetic allele-specific PCR, similar to the method described by Germer et al. (Germer S., Holland M. J., Higuchi R. 2000, Genome Res. 10: 258-266).
For statistical analysis of association of SNPs with pravastatin treatment in RMI prevention (Table 10), effect sizes were estimated through genotypic RR, including 95% CIs. Homogeneity of Cochran-Mantel-Haenszel odds ratios was tested across pravastatin and placebo strata using the Wald test. […] (this adjustment supports independence of the SNP association from conventional risk factors). This table also provides the frequency data for the at risk allele in the columns labeled “Case Y PRIMER ALLELE Nucleotide Frequency” and “Control Y PRIMER ALLELE Nucleotide Frequency”. Allele frequencies for the cases and controls ≤0.49 indicate that the at-risk allele is the minor allele. Allele frequencies ≥0.50 indicate that the at-risk allele is the major allele. An example of a SNP associated with increased risk for an adverse cardiovascular event in the placebo group using a dominant genotypic test is hCV25644901. […] However, this same SNP was protective in the statin treated group with a RR of 0.58. An example of a SNP associated with an adverse cardiovascular event in the placebo group using the allelic association test is hCV16044337 with a RR of 1.87 for the homozygous AA genotype. This same genotype was protective in the statin treated group with a RR of 0.56.

CC[C@H](C)C(=O)O[C@H]1C[C@H](O)C=C2C=C[C@H](C)[C@H](CC[C@@H](O)C[C@@H](O)CC(=O)O)[C@H]21 [pravastatin]
RR (relative risk for RMI) (HSPG2 hCV16172339, Het(TC) stratum, Statin vs Placebo, covars none): 0.37 | RR (relative risk for RMI) (HSPG2 hCV16172339, Maj Hom (CC) stratum, Statin vs Placebo, covars none): 0.80 | RR (relative risk for RMI) (HSPG2 hCV16172339, Statin stratum, het (TC)vs. ref(CC), covars none): 0.66 | RR (relative risk for RMI) (IL4R hCV2351160, Het(GA) stratum, Statin vs Placebo, covars HX_SMOKE): 0.57 | RR (relative risk for RMI) (IL4R hCV2351160, Maj Hom(AA) stratum, Statin vs Placebo, covars HX_SMOKE): 0.85 | RR (relative risk for RMI) (IL4R hCV2351160, Min Hom(GG) stratum, Statin vs Placebo, covars HX_SMOKE): 0.36 | RR (relative risk for RMI) (IL4R hCV2351160, Statin stratum, het(GA) vs. ref(AA), covars HX_SMOKE): 0.76 | RR (relative risk for RMI) (IL4R hCV2351160, Statin stratum, hom (GG)vs. ref(AA), covars HX_SMOKE): 0.61 | RR (relative risk for RMI) (IL4R hCV2769554, Het(GA) stratum, Statin vs Placebo): 0.64 | RR (relative risk for RMI) (IL4R hCV2769554, Maj Hom(AA) stratum, Statin vs Placebo): 0.59 | RR (relative risk for RMI) (IL4R hCV2769554, Min Hom(GG) stratum, Statin vs Placebo): 1.56 | RR (relative risk for RMI) (IL4R hCV2769554, Statin stratum, het(GA) vs. ref(AA)): 1.17 | RR (relative risk for RMI) (IL4R hCV2769554, Statin stratum, hom(GG) vs. ref(AA)): 1.26 | RR (relative risk for RMI) (ITGA9 hCV3215409, Het(GA) stratum, Statin vs Placebo): 0.86 | RR (relative risk for RMI) (ITGA9 hCV3215409, Maj Hom(AA) stratum, Statin vs Placebo): 0.84 | RR (relative risk for RMI) (ITGA9 hCV3215409, Min Hom(GG) stratum, Statin vs Placebo): 0.30 | RR (relative risk for RMI) (ITGA9 hCV3215409, Statin stratum, het (GA)vs. ref(AA)): 1.22 | RR (relative risk for RMI) (ITGA9 hCV3215409, Statin stratum, hom(GG) vs. ref(AA)): 0.54 | RR (relative risk for RMI) (LAMA2 hCV16047108, Het (GA) stratum, Statin vs Placebo): 1.31 | RR (relative risk for RMI) (LAMA2 hCV16047108, Maj Hom (AA) stratum, Statin vs Placebo): 0.63 | RR (relative risk for RMI) (LAMA2 hCV16047108, Statin stratum, het(GA) vs. ref (AA)): 2.02 | RR (relative risk for RMI) (LAMA2 hCV16047108, Statin stratum, hom(GG) vs. ref (AA)): 4.97 | RR (relative risk for RMI) (LPA hCV11225994, Het(GA) stratum, Statin vs Placebo): 1.02 | RR (relative risk for RMI) (LPA hCV11225994, Maj Hom(GG) stratum, Statin vs Placebo): 0.62 | RR (relative risk for RMI) (LPA hCV11225994, Min Hom(AA) stratum, Statin vs Placebo): 1.33 | RR (relative risk for RMI) (LPA hCV11225994, Statin stratum, het(GA) vs. ref (GG)): 1.06 | RR (relative risk for RMI) (LPA hCV11225994, Statin stratum, hom (AA)vs. ref(GG)): 2.34 | RR (relative risk for RMI) (MACF1 hCV3112686, Het(GC) stratum, Statin vs Placebo, covars HX_SMOKE): 0.71 | RR (relative risk for RMI) (MACF1 hCV3112686, Maj Hom(CC) stratum, Statin vs Placebo, covars HX_SMOKE): 0.96 | RR (relative risk for RMI) (MACF1 hCV3112686, Min Hom(GG) stratum, Statin vs Placebo, covars HX_SMOKE): 0.42 | RR (relative risk for RMI) (MACF1 hCV3112686, Statin stratum, het(GC) vs. ref(CC), covars HX_SMOKE): 0.98 | RR (relative risk for RMI) (MACF1 hCV3112686, Statin stratum, hom(GG) vs. ref(CC), covars HX_SMOKE): 0.60 | RR (relative risk for RMI) (NPC1 hCV25472673, Het(TC) stratum, Statin vs Placebo, covars none): 0.61 | RR (relative risk for RMI) (NPC1 hCV25472673, Maj Hom(TT) stratum, Statin vs Placebo, covars none): 1.08 | RR (relative risk for RMI) (NPC1 hCV25472673, Statin stratum, het(TC) vs. ref(TT), covars none): 0.76 | RR (relative risk for RMI) (NPC1 hCV25472673, Statin stratum, hom(CC) vs. ref(TT), covars none): 0.87 | RR (relative risk for RMI) (PLAB hCV7494810, Het(GC) stratum, Statin vs Placebo, covars HX_SMOKE): 0.46 | RR (relative risk for RMI) (PLAB hCV7494810, Maj Hom(CC) stratum, Statin vs Placebo, covars HX_SMOKE): 0.94 | RR (relative risk for RMI) (PLAB hCV7494810, Min Hom(GG) stratum, Statin vs Placebo, covars HX_SMOKE): 0.75 | RR (relative risk for RMI) (PLAB hCV7494810, Statin stratum, het(GC) vs. ref(CC), covars HX_SMOKE): 0.67 | RR (relative risk for RMI) (PLAB hCV7494810, Statin stratum, hom(GG) vs. ref(CC), covars HX_SMOKE): 0.68 | RR (relative risk for RMI) (PPOX hCV25922816, Het(GA) stratum, Statin vs Placebo): 0.42 | RR (relative risk for RMI) (PPOX hCV25922816, Maj Hom(GG) stratum, Statin vs Placebo): 0.82 | RR (relative risk for RMI) (PPOX hCV25922816, Statin stratum, het(GA) vs. ref(GG)): 0.64 | RR (relative risk for RMI) (PTPRJ hCV8895373, Het(GA) stratum, Statin vs Placebo): 1.07 | RR (relative risk for RMI) (PTPRJ hCV8895373, Maj Hom(GG) stratum, Statin vs Placebo): 0.60 | RR (relative risk for RMI) (PTPRJ hCV8895373, Min Hom(AA) stratum, Statin vs Placebo): 1.62 | RR (relative risk for RMI) (PTPRJ hCV8895373, Statin stratum, het(GA) vs. ref (GG)): 1.43 | RR (relative risk for RMI) (PTPRJ hCV8895373, Statin stratum, hom(AA)vs. ref(GG)): 1.14 | RR of adverse cardiovascular event in the statin treated group (hCV16044337, homozygous AA genotype): 0.56 | RR of adverse cardiovascular event in the statin treated group (hCV25644901, dominant genotype (GG or GA)): 0.58
